Measurements reported in ChEMBL document CHEMBL5143567, “Dose Number as a Tool to Guide Lead Optimization for Orally Bioavailable Compounds in Drug Discovery” (J Med Chem, 2022).
≈ marks a conversion by molar mass, not a printed value.

Legend:
[1] = physchem; details: phosphate buffer, pH 6.8
Description: Aqueous solubility of the compound in phosphate buffer at pH 6.8 measured after 72 hrs by UV-Vis spectrophotometer

[2] = Permeability in human Caco-2 cells; type: ADME, cell-based; details: read-out: permeability
[3] = Aqueous solubility of the compound at pH 1.8; type: physicochemical; details: buffer
[4] = Permeability in MDCK-II cells; type: ADME, cell-based, Canis lupus familiaris; details: dog, read-out: permeability
[5] = Aqueous solubility of the compound at pH 5; type: physicochemical; details: buffer
[6] = Aqueous solubility of the compound; type: physicochemical; details: buffer
[7] = Permeability in pig LLC-PK1 cells; type: ADME, cell-based, Sus scrofa; details: read-out: permeability
[8] = Aqueous solubility of the compound in FaSSIF; type: physicochemical
[9] = Aqueous solubility of the compound in buffer; type: physicochemical
[10] = Permeability in rat jejunum; type: ADME, tissue-based; details: read-out: permeability
[11] = Aqueous solubility of the compound in FaSSIF at pH 6.5 measured by dissolution tester; type: physicochemical

CCC[C@H](NC(=O)[C@@H]1[C@H]2CCC[C@H]2CN1C(=O)[C@@H](NC(=O)[C@@H](NC(=O)c1cnccn1)C1CCCCC1)C(C)(C)C)C(=O)C(=O)NC1CC1
solubility at 72 h [1]: 4.7 µg/mL (≈ 6.91 µM)
Papp [2]: > 4.4 ×10⁻⁶ cm/s

COC(=O)N[C@H](C(=O)N1CCC[C@H]1c1nc(-c2ccc3c(c2)O[C@@H](c2ccccc2)n2c-3cc3cc(-c4c[nH]c([C@@H]5CCCN5C(=O)[C@@H](NC(=O)OC)C(C)C)n4)ccc32)c[nH]1)C(C)C [ELBASVIR]
solubility [3]: > 5 µg/mL
Papp [4]: 0.8 ×10⁻⁶ cm/s
solubility [5]: 50 µg/mL (≈ 56.7 µM)

Cc1cc(C#N)cc(C)c1Oc1nc(Nc2ccc(C#N)cc2)nc(N)c1Br [ETRAVIRINE]
solubility [6]: < 1 µg/mL

C=C[C@@H]1C[C@]1(NC(=O)[C@@H]1C[C@@H]2CN1C(=O)[C@H](C(C)(C)C)NC(=O)O[C@@H]1C[C@H]1CCCCCc1nc3ccc(OC)cc3nc1O2)C(=O)NS(=O)(=O)C1CC1 [GRAZOPREVIR ANHYDROUS]
Papp [7]: 19 ×10⁻⁶ cm/s
solubility [8]: < 7 µg/mL

CC(C)(C)c1cc(C(C)(C)C)c(NC(=O)c2c[nH]c3ccccc3c2=O)cc1O [IVACAFTOR]
solubility [9]: < 0.05 µg/mL

COC(=O)N[C@H](C(=O)N1CCC[C@H]1c1nc2cc([C@H]3CC[C@H](c4cc5nc([C@@H]6CCCN6C(=O)[C@@H](NC(=O)OC)[C@@H](C)OC)[nH]c5cc4F)N3c3cc(F)c(N4CCC(c5ccc(F)cc5)CC4)c(F)c3)c(F)cc2[nH]1)[C@@H](C)OC [PIBRENTASVIR]
Papp [4]: < 1 ×10⁻⁶ cm/s

CC(C)c1nc(CN(C)C(=O)N[C@H](C(=O)N[C@@H](Cc2ccccc2)C[C@H](O)[C@H](Cc2ccccc2)NC(=O)OCc2cncs2)C(C)C)cs1 [RITONAVIR]
Papp [2]: 20 ×10⁻⁶ cm/s

Cc1ccc(-n2nccn2)c(C(=O)N2CCN(c3nc4cc(Cl)ccc4o3)CC[C@H]2C)c1 [SUVOREXANT]
Papp [7]: 22.8 ×10⁻⁶ cm/s
solubility [8]: 9 µg/mL (≈ 20 µM)

C=CC[C@@H]1/C=C(\C)C[C@H](C)C[C@H](OC)[C@H]2O[C@@](O)(C(=O)C(=O)N3CCCC[C@H]3C(=O)O[C@H](/C(C)=C/[C@@H]3CC[C@@H](O)[C@H](OC)C3)[C@H](C)[C@@H](O)CC1=O)[C@H](C)C[C@@H]2OC [TACROLIMUS ANHYDROUS]
solubility [6]: 1.3 µg/mL (≈ 1.62 µM)
Papp [10]: 18 ×10⁻⁶ cm/s

CCCS(=O)(=O)Nc1ccc(F)c(C(=O)c2c[nH]c3ncc(-c4ccc(Cl)cc4)cc23)c1F [VEMURAFENIB]
solubility [11]: 2 µg/mL (≈ 4.08 µM)
Papp [2]: 2.9 ×10⁻⁶ cm/s
